These results are taken from patent publication US9089509B2, “Method of treatment of age-related macular degeneration” (YEDA RESEARCH AND DEVELOPMENT CO., LTD., priority 2006, dated 2015).

Assay [1] concerns neural stem/progenitor cells (NPCs) co-cultured with microglia. The experiment in a line: Co-culture of GFP-expressing neural progenitor cells with treated microglia, neurogenesis (GFP+/βIII-T+ cells). The assay is classed as cell-based, mouse. As to the method:
Coronal sections (2 mm thick) of tissue containing the subventricular zone of the lateral ventricle were obtained from the brains of adult C57Bl/6J mice. The tissue was minced and then incubated for digestion at 37° C., 5% CO2 for 45 min in Earle's balanced salt solution containing 0.94 mg/ml papain (Worthington, Lakewood, N.J.) and 0.18 mg/ml of L-cysteine and EDTA. After centrifugation at 110×g for 15 min at room temperature, the tissue was mechanically dissociated by pipette trituration. Cells obtained from single-cell suspensions were plated (3500 cells/cm^2) in 75-cm^2 Falcon tissue-culture flasks (BD Biosciences, San Diego, Calif.), in neural stem/progenitor cell (NPC)-culturing medium [Dulbecco's modified Eagles's medium (DMEM)/F12 medium (Gibco/Invitrogen, Carlsbad, Calif.) containing 2 mM L-glutamine, 0.6% glucose, 9.6 μg/ml putrescine, 6.3 ng/ml progesterone, 5.2 ng/ml sodium selenite, 0.02 mg/ml insulin, 0.1 mg/ml transferrin, 2 μg/ml heparin (all from Sigma-Aldrich, Rehovot, Israel), fibroblast growth factor-2 (human recombinant, 20 ng/ml), and epidermal growth factor (human recombinant, 20 ng/ml; both from Peprotech, Rocky Hill, N.J.)]. Spheres were passaged every 4-6 days and replated as single cells. Green fluorescent protein (GFP)-expressing NPCs were obtained as previously described (Pluchino et al., 2003).
Brains from neonatal (P0-P1) C57Bl/6J mice were stripped of their meninges and minced with scissors under a dissecting microscope (Zeiss, Stemi DV4, Germany) in Leibovitz-15 medium (Biological Industries, Kibbutz Beit Ha-Emek, Israel). After trypsinization (0.5% trypsin, 10 min, 37° C./5% CO2), the tissue was triturated. The cell suspension was washed in culture medium for glial cells [DMEM supplemented with 10% fetal calf serum (FCS; Sigma-Aldrich, Rehovot), L-glutamine (1 mM), sodium pyruvate (1 mM), penicillin (100 U/ml), and streptomycin ([…])] and cultured at 37° C./5% CO2 in 75-cm^2 Falcon tissue-culture flasks (BD Biosciences) coated with poly-D-lysine (PDL) (10 mg/ml; Sigma-Aldrich, Rehovot) in borate buffer (2.37 g borax and 1.55 g boric acid dissolved in 500 ml sterile water, pH 8.4) for 1 h, then rinsed thoroughly with sterile, glass-distilled water. Half of the medium was changed after 6 h in culture and every 2nd day thereafter, starting on day 2, for a total culture time of 10-14 days. […]

The subject of another assay is microglia. The experiment in a line: CD11c expression and morphology in primary culture of mouse microglia. Format: cell-based. To be noted: microglia, 10 ng/ml (FIGS. 8A-8D). As to the method: Brains from neonatal (P0-P1) C57Bl/6J mice were stripped of their meninges and minced with scissors under a dissecting microscope (Zeiss, Stemi DV4, Germany) in Leibovitz-15 medium (Biological Industries, Kibbutz Beit Ha-Emek, Israel). After trypsinization (0.5% trypsin, 10 min, 37° C./5% CO2), the tissue was triturated. The cell suspension was washed in culture medium for glial cells [DMEM supplemented with 10% fetal calf serum (FCS; Sigma-Aldrich, Rehovot), L-glutamine (1 mM), sodium pyruvate (1 mM), penicillin (100 U/ml), and streptomycin ([…])] and cultured at 37° C./5% CO2 in 75-cm^2 Falcon tissue-culture flasks (BD Biosciences) coated with poly-D-lysine (PDL) (10 mg/ml; Sigma-Aldrich, Rehovot) in borate buffer (2.37 g borax and 1.55 g boric acid dissolved in 500 ml sterile water, pH 8.4) for 1 h, then rinsed thoroughly with sterile, glass-distilled water. Half of the medium was changed after 6 h in culture and every 2nd day thereafter, starting on day 2, for a total culture time of 10-14 days. Microglia were shaken off the primary mixed brain glial cell cultures (150 rpm, 37° C., 6 h) with maximum yields between days 10 and 14, seeded (10^5 cells/ml) onto PDL-pretreated 24-well plates (1 ml/well; Corning, N.Y., N.Y.), and grown in culture medium for microglia [RPMI-1640 medium (Sigma-Aldrich, Rehovot) supplemented with 10% FCS, L-glutamine (1 mM), sodium pyruvate (1 mM), β-mercaptoethanol ([…]), penicillin (100 U/ml), and streptomycin ([…])]. The cells were allowed to adhere to the surface of a PDL-coated culture flask (30 min, 37° C./5% CO2), and non-adherent cells were rinsed off.
Cover slips from co-cultures of NPCs and mouse microglia were washed with PBS, fixed as described above, treated with a permeabilization/blocking solution containing 10% FCS, 2% bovine serum albumin, 1% glycine, and 0.1% Triton X-100 (Sigma-Aldrich, Rehovot), and stained with a combination of mouse anti-[…] (anti-βIII-T) isoform C-terminus antibodies (1:500; Chemicon, Temecula, Calif.), rat anti-CD11b (MAC1; 1:50; BD—Pharmingen, Franklin Lakes, N.J.) and hamster anti-CD11c (1:100; eBioscience, San Diego, Calif.). To capture the microglia FITC- or Cy3-conjugated Bandeiraea simplicifolia isolectin B4 (IB-4; 1:50; Sigma-Aldrich, Rehovot) was used. To detect expression of human Aβ anti-Aβ (human amino-acid residues 1-17) (mouse, clone 6E10; Chemicon) was used.
On the basis of our previous findings, we suspected that the switch from a CD11b^+/CD11c^−/IGF-1^− to a CD11b^+/CD11c^+/IGF-I^+ microglial phenotype in the Cop-1 vaccinated Tg-AD mice might be attributable to IL-4. We examined this possibility in vitro. […] In contrast, the expression of CD11c induced by IL-4 was not transient. Quantification of the ability of IL-4 to induce CD11c expression even after the microglia were pretreated with Aβ is shown in FIG. 4D.
Thus, upregulation of CD11c on bone marrow derived myeloid cells by […] will allow the cells to reach injured sites and induce beneficial effect.

As for “Aβ(1-40): β-amyloid peptide fragment 1-40, aggregated”, the “effect of microglia activated by aggregated Aβ(1-40) on neurogenesis and NPC number” value in assay [1] (aggregated Aβ(1-40) 5 μM, 48 h pre-incubation, co-culture 10 days) was “blocked neurogenesis and decreased the number of NPCs”.
As for IFN-γ: recombinant mouse IFN-γ, in assay [1] (cytokine 10 ng/ml added for 48 h after 48 h aggregated Aβ(1-40) 5 μM), the “counteracting the negative effect of Aβ-activated microglia on NPC survival and differentiation” value is recorded as “failed to reverse their negative effect on neurogenesis”. Also, the “numbers of GFP+/βIII-T+ cells in co-cultures of NPCs with activated microglia” value in assay [1] (microglia activated with 10 ng/ml, co-culture 10 days, vs microglia-free control) was “dramatic increase”. In addition, the “time to peak of CD11c upregulation after activation” value in the assay on microglia was 2 to 3 days.
